Experimental data from US8524277B2, “Extended release dosage form” (Alza Corporation, priority 1998, dated 2013).

Type: physicochemical
From the text: Hydrophilic materials for use in forming the interior wall which have solubilities sensitive to osmotic pressure or to ionic strength can be screened experimentally prior to formulating them within the interior wall. This procedure involves forming an aqueous solution of the candidate hydrophilic materials using distilled water as the solvent. Then, the resulting solution is cast onto a smooth inert surface, such as a glass plate, and allowed to dry to a film. The film is then removed and cut into sections of known area, thickness, and weight. The resulting film samples are then placed in a series of reference solutions of various osmotic pressures or ionic strengths with mild stirring. The time required for the film to dissolve, t, is then measured as a function of osmotic pressure or ionic strength. Then, given the known values of initial film thickness, hi, the dissolution rate of the film, dh/dt, can be calculated according to Equation 5. […]
The solubility of various hydrophilic materials to osmotic pressure was evaluated. […] Thicknesses of the discs were measured with a table micrometer. […] The time to dissolution was then monitored for each sample. Dissolution rate was calculated according to Equation 5 and plotted as a function of osmotic pressure for each molecular weight. […]

Substance: hydroxypropylcellulose [Klucel EF]
- osmotic pressure at which the film is insoluble: above 30 atmospheres
- osmotic pressure at which the film is soluble: 0-30 atmospheres
